Patent CN113143900A, “Ml365在制备预防和/或治疗nlrp3炎症小体相关疾病的药物中的应用” (Southern Medical University, priority 2021, dated 2021)
“Also recorded” adds a separate entry of the source.

Experiments:
[1] = test system: NLRP3 inflammasome [NLRP3炎症小体]; conditions: mouse BMDM; pharmacological inhibition (or knockout) of TWIK2; Di et al. 2018; cited from earlier work
TNF-α = TNF-α in supernatants of LPS + ATP treated BMDM, ELISA; type: cell-based, mouse; conditions: same supernatants
[2] = target: T1, human THIK1 channel [人源THIK1, THIK1通道] (Homo sapiens, UniProt Q9HB14); assay: Whole-cell patch clamp of transfected COS-7 cells, THIK1 current; type: cell-based
T1 construct: GFP (green fluorescent protein label of the plasmid); expressed in transfected cells; host or cells: COS-7
T1 sequence (Q9HB14 1-408): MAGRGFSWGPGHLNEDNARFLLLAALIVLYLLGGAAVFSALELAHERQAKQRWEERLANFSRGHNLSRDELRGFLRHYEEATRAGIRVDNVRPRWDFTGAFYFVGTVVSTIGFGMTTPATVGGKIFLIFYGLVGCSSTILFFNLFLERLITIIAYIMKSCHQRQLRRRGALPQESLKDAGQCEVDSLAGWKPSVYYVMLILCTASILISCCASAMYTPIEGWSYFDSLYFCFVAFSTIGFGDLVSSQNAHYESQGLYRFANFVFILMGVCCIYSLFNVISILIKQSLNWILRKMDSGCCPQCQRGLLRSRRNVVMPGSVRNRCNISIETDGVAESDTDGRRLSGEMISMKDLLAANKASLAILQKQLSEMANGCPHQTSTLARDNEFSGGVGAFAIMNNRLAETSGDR

[3] = test system: NLRP3 inflammasome [NLRP3炎症小体]; assay: Nigericin-induced NLRP3 inflammasome activation in LPS-primed BMDM (WB, ELISA); type: cell-based, mouse
[4] = target: T2, human TWIK2 channel, functional mutant muTWIK2 Y308A/I289A/L290A [人源TWIK2-Y308A/I289A/L290A, muTWIK2] (Homo sapiens, UniProt Q9Y257, I289A/L290A/Y308A); assay: Whole-cell patch clamp of transfected COS-7 cells, TWIK2 (muTWIK2) current; type: cell-based
T2 construct: GFP (green fluorescent protein label of the plasmid); expressed in transfected cells; host or cells: COS-7
T2 sequence (Q9Y257 1-313 I289A/L290A/Y308A): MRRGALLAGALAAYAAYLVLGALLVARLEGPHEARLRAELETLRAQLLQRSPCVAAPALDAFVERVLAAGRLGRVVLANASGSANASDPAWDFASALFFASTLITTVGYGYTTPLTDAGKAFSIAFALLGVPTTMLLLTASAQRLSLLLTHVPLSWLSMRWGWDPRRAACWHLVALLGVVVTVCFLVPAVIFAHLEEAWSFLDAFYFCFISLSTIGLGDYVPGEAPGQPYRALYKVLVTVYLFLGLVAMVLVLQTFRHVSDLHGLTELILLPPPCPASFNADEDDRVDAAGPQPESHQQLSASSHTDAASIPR

[5] = test system: NLRP3 inflammasome [NLRP3炎症小体]; assay: ATP-induced IL-1β release from LPS-primed BMDM, ELISA; type: cell-based, mouse
[6] = target: T3, human TWIK1 channel, functional mutant muTWIK1 I293/294A/K274E [人源TWIK1-I293/294A/K274E, muTWIK1] (Homo sapiens, UniProt O00180, I293A/I294A/K274E); assay: Whole-cell patch clamp of transfected COS-7 cells, TWIK1 (muTWIK1) current; type: cell-based
T3 construct: GFP (green fluorescent protein label of the plasmid); expressed in transfected cells; host or cells: COS-7
T3 sequence (O00180 1-336 K274E/I293A/I294A): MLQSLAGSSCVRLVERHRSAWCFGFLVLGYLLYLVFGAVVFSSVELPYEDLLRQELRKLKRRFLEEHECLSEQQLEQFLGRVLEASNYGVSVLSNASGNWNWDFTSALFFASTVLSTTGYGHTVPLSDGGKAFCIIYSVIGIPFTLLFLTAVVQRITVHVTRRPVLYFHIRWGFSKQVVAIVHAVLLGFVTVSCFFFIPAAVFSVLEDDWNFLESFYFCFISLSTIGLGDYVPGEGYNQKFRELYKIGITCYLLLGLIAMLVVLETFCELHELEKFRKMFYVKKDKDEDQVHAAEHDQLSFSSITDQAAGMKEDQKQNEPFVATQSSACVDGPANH

[7] = test system: AIM2 inflammasome [AIM2炎症小体]; assay: AIM2 inflammasome activation (LPS + poly(dA:dT)), IL-1β ELISA; type: cell-based, mouse; conditions: ML365 5 μM (Fig. 9)
[8] = test system: NLRC4 inflammasome [NLRC4炎症小体]; assay: NLRC4 inflammasome activation (Pam3CSK4 + Flagellin), IL-1β ELISA; type: cell-based, mouse; conditions: ML365 5 μM (Fig. 9)
[9] = test system: NLRP3 inflammasome [NLRP3炎症小体]; assay: ATP-induced NLRP3 inflammasome activation in LPS-primed BMDM, Western blot (WB); type: cell-based, mouse
[10] = test system: NLRP3 inflammasome [NLRP3炎症小体]; assay: ATP-induced NLRP3 inflammasome activation in BMDM after siRNA knockdown of TWIK2 (WB, ELISA); type: cell-based, mouse; conditions: ML365 5 μM (Fig. 11), TWIK2 siRNA 50 nM 48 h, LPS + ATP
[11] = test system: non-canonical inflammasome [非经典炎症小体]; assay: Non-canonical inflammasome activation (Pam3CSK4 + transfected LPS), IL-1β ELISA; type: cell-based, mouse; conditions: ML365 5 μM (Fig. 9)
[12] = test system: NLRP3 inflammasome [NLRP3炎症小体]; assay: ATP- or Nigericin-induced NLRP3 inflammasome activation in human THP-1 macrophages; type: cell-based

## C=C[C@H]1CN2CC[C@H]1C[C@H]2[C@H](O)c1ccnc2ccc(OC)cc12 [奎宁]
[1]
  ASC oligomerisation (in words): 抑制caspase-1的激活、ATP诱发的IL-1β的释放以及凋亡相关斑点形成蛋白ASC的寡聚化
  ATP-evoked IL-1β release (in words): 抑制caspase-1的激活、ATP诱发的IL-1β的释放
  caspase-1 activation (in words): 抑制caspase-1的激活
  effect on NLRP3 inflammasome activation (in words): 可以抑制BMDM细胞中NLRP3炎症小体的激活

## COc1ccccc1C(=O)Nc1cccc(NC(=O)c2cccc(C)c2)c1 [ML365, 2-甲氧基-N-[3-[(3-甲基苯甲酰基)氨基]苯基]苯甲酰胺]
TNF-α
  TNF-α expression (in words): 几乎无影响
[2]; 10 μM
  inhibition of THIK1 channel (in words): 几乎无抑制作用
[2]; 20 μM
  inhibition of THIK1 channel (in words): 也无抑制作用
[2]; concentration not stated
  effect on THIK1 channel function (in words): 不影响
[3]; BMDM, even at 10 and 20 μM, Nigericin 10 μM 30 min
  effect on Nigericin-induced NLRP3 inflammasome activation (in words): 没有影响
[3]; concentration not stated
  effect on Nigericin-induced NLRP3 inflammasome activation (in words): 无影响
[4]; 10 μM in Fig. 3, muTWIK2 in COS-7 cells
  inhibition of TWIK2 channel (in words): 特异性强效抑制剂; also recorded: 强效抑制剂; also recorded: 较强的抑制作用
[4]; ML365 10 μM, muTWIK2 in COS-7 cells
  I/I0 (inhibition of TWIK2 channel): 0.35±0.02
[4]; ML365 10 μM, muTWIK2 in COS-7 cells, read-out: I/I0 (inhibition of TWIK2 channel)
  activity at 10 µM: 35 ± 2%
[4]; compared with TWIK1 and THIK1
  selectivity for TWIK2 channel (in words): 特异性选择抑制剂; also recorded: 强效选择性抑制剂; also recorded: 选择性抑制剂
[4]; inhibition of TWIK2 channel, dose-response curve on muTWIK2, COS-7 cells
  IC50: 4.07 µM
[5]
  IL-1β release (in words): 显著降低
[6]; 10 μM
  inhibition of muTWIK1 channel (in words): 没有抑制作用
[6]; 20 μM
  inhibition of muTWIK1 channel (in words): 也无抑制作用
[6]; concentration not stated
  effect on TWIK1 channel function (in words): 不影响
[7]
  effect on AIM2 inflammasome activation / induced IL-1β production (in words): 不抑制 and 无影响
[8]
  effect on NLRC4 inflammasome activation / induced IL-1β production (in words): 不抑制 and 无影响
[9]; LPS 5 μg/mL overnight, compound 2 h, ATP 5 mM 1 h
  effect on ATP-induced NLRP3 inflammasome activation (in words): 阻断 and 剂量依赖性地抑制 and 可以特异性抑制 and 可特异性地抑制 and 可特异性抑制
[9]; WB, LPS + ATP
  expression level of caspase-1 in cell supernatant (in words): 有所降低
  expression level of mature IL-1β in cell supernatant (in words): 有所降低
[10]
  inhibition of ATP-induced NLRP3 inflammasome activation by ML365 after TWIK2 knockdown (in words): 可阻断 and 极大减弱 and 显著下降 and 可消除
[11]
  effect on non-canonical inflammasome activation (in words): 不抑制 and 无影响
[12]; ATP
  effect on ATP-induced NLRP3 inflammasome activation (in words): 也在人THP-1巨噬细胞中得到证实 and 抑制
[12]; Nigericin
  effect on Nigericin-induced NLRP3 inflammasome activation (in words): 也在人THP-1巨噬细胞中得到证实 and 无影响
